The record followed here is US20260275295A1, “LIVER ORGANOIDS WITH INTRAHEPATIC SYMPATHETIC NERVES AND METHODS OF USE THEREOF” (CHILDREN'S HOSPITAL MEDICAL CENTER, priority 2023, published 2026).

Data set [1] deals with human liver organoids (HLOs). Briefly: generation of neural crest cells and sympathetic neurons in HLOs (real-time PCR, whole mount immunostaining, flow cytometry). The data set is classed as cell-based. How it is done: (§1) Foregut spheroids were treated with 250 nM, 500 nM, or 1000 nM of the BMP inhibitor LDN193189 for 72 hours from day 3 (D3) to day 6 (D6) of differentiation, and real-time PCR quantification was performed on D6. […] (FIG. 12). […] (FIG. 15A).

A further data set has as its system foregut spheroids. Briefly: real-time PCR of neural crest markers in foregut spheroids. Format: cell-based, human. The conditions noted are these: 250 nM, 500 nM, or 1000 nM for 72 hours D3 to D6, PCR on D6. The protocol:
as §1

The subject of data set [2] is human liver organoids (HLOs). Briefly: gene expression of liver markers / liver induction in HLOs. Format: cell-based.
Data set [3] deals with human liver organoids (HLOs). Briefly: generation of neural crest cells and sympathetic neurons in HLOs (real-time PCR, whole mount immunostaining, flow cytometry). The data set is classed as cell-based. This is another data set of the same source. (Quantitative PCR measures a nucleic acid by following its amplification.)
For data set [4], the system named is human liver organoids (HLOs). Briefly: albumin (ALB) secretion of HLOs. The data set is classed as cell-based.
Data set [5] has as its system human liver organoids (HLOs). Briefly: immunostaining and cell volume analysis of TUBB3+ and TH+ nerves in HLOs. Format: cell-based. The protocol: Single cell RNA sequencing (scRNAseq) and real-time PCR quantification of gene expression were performed in day 20 (D20) liver organoids, and it was noted that the neuron attractive factor BDNF was highly expressed in hepatic stellate-like cells of the liver organoids. (FIG. 13). HLOs were treated with and without 1 μM BDNF inhibitor ANA12 for 5 days from day 15 (D15) to day 20 (D20) of differentiation induction. […] (FIG. 14). […] HLOs were treated with and without 100 nM of BDNF for 13 days from day 15 (D15) to day 28 (D28) of differentiation induction.

The subject of data set [6] is adrenergic receptor signaling. Briefly: intracellular cAMP levels in human liver organoids. The conditions noted are these: compared to untreated organoids. Format: cell-based. On the technique in general: Cyclic AMP is a second messenger, typically raised through Gs and lowered through Gi signalling.
Procedure: The sympathetic neurons, or sympathetic nerves, in human liver organoids were ablated by 6-hydroxydopamine (6-OHDA), a sympathetic-specific toxin, and the intracellular levels of cyclic AMP (CAMP), a second messenger of adrenergic receptors in human liver organoids, were measured.
The subject of data set [7] is HLO derived from two different iPS lines. Briefly: amount of TH+ cells in OA-treated HLO (NASH model). The data set is classed as cell-based, human. The conditions noted are these: OA treatment. An excerpt:
FIG. 25 depicts the effect of OA treatment in increasing the amount of TH+ cells in HLO derived from two different iPS lines, showing an increase in innervation in a NASH model.
• 1. The distribution of sympathetic nerves projected to the liver is very different in humans as compared to experimental model animals, such as mice and rats. The presently described sympathetic neuron-containing human liver organoid model is expected to elucidate the distinctive mechanisms and timing of intrahepatic sympathetic projections during human liver development. • 2. Although it has been reported that sympathetic nerves contribute to the development and function of multiple organs, little is known regarding sympathetic nerves in the liver. This model leads to the identification of sympathetic effects on human liver development and the elucidation of their mechanisms of action. The model can also enable construction of enhanced (or mature) liver organoids by artificially regulating sympathetic nerve activity. • 3. The sympathetic nervous system has been reported to regulate gluconeogenesis in humans, but the mechanism by which it is promoted is unknown. Using this model, the mechanisms of human hepatic sympathetic innervation in gluconeogenesis can be elucidated. • 4. […] This model will allow us to identify the role of sympathetic nerves and their mechanisms in liver diseases. […]

The test system of data set [8] is hepatocytes of human liver organoids. Briefly: TG accumulation in hepatocytes of organoids, live cell imaging with BODIPY 493/503. The data set is classed as cell-based. The protocol: Next, it was determined whether sympathetic neurons, or sympathetic nerves, in human liver organoids contribute to lipid accumulation in hepatocytes. After treatment with 6-OHDA, triglyceride (TG) in hepatocytes of the organoids were measured by live cell imaging using BODIPY 493/503, a fluorescent probe for TG, and the accumulation of TG in hepatocytes of 6-OHDA-treated and untreated organoids was compared. TG accumulation in hepatocytes of 6-OHDA-treated organoids was about twice that of untreated organoids (FIG. 8A). In addition, TG accumulation in hepatocytes of organoids treated with 6-OHDA and then exposed to oleic acid (OA) for 3 days was about 3-fold higher than that of OA-only treated organoids (FIG. 8A).

For the next data set, the system named is human liver organoids. Briefly: RT-qPCR of gluconeogenesis, lipogenesis and cytokine genes in liver organoids. Format: cell-based.
[9] abbreviates: SB alone, 10 μM, days 3-6, listed as SB.
[10] abbreviates: RT-qPCR, 6-OHDA treated organoids vs control.
Setting [11] is: steatosis conditions (oleic acid), relative to those not treated with 6-OHDA.

Consider `c1ccc2c(-c3cnn4cc(-c5ccc(N6CCNCC6)cc5)cnc34)ccnc2c1` [LDN193189], for which the “neural crest cells and TUBB3/TH+ neurons detected” value in data set [1] (250 nM, days 3-6) is given as “high frequency”. For the same molecule, the “induction of neural crest cells and TH/TUBB+ sympathetic neurons” value in [1] (250 nM, days 3 to 6) is “optimal concentrations”. Besides, the “induction of neural crest cells and TH/TUBB+ sympathetic neurons” value in [1] (500 nM, days 3 to 6) was “optimal concentrations”. Also, in data set [1] (1000 nM, days 3 to 6), the “TH/TUBB+ sympathetic neurons” value is given as “reduced” and the “production of neural crest cells” value is recorded as “reduced”. Besides, the “creation of sympathetic neurons, or sympathetic nerves” value in [1] (LDN 250 (nM)) was “reproducibly”. Further, in the data set on foregut spheroids, the “expression of neural crest marker FOXD3” value is recorded as “increased expression”, the “expression of neural crest marker NGFR” value is listed as “increased expression” and the “expression of neural crest marker SOX10” value was “increased expression”. Also, in data set [2] (250 nM, 500 nM, 1000 nM), the “gene expression level of liver marker HNF4A” value is on record as “decrease in a LDN concentration-dependent manner” and the “gene expression level of liver marker albumin (ALB)” value is reported as “decrease in a LDN concentration-dependent manner”. Moreover, in data set [2] (250 nM, days 3-6), the “gene expression of liver marker ALB” value was “reduced” and the “gene expression of liver marker HNF4A” value is reported as “reduced”. For the same molecule, in data set [2] (timing of addition changed from Day 3-6 to Day 6-10), the “induction to the liver” value was “improves induction to the liver”. For the same molecule, the detection of neurons entry in [3] (250 nM LDN193189 alone or in combination with 10 μM SB431542, days 6-10, rate varies between batches) is “sometimes detected”. In [3] (HLOs on day 20, treated days 3-6, real-time PCR), the “expression of autonomic marker ASCL1” value is “increased”. Moreover, the “frequency of sympathetic generation” value in data set [3] (addition Day 6-10) is listed as “varies between batches”. For the same molecule, the ALB secretion lower entry in [4] (250 nM LDN193189 alone or in combination with 10 μM SB431542, days 6-10) is listed as “about ⅓”. For the same molecule, in [4] (250 nM, days 3-6), the ALB secretion result was “reduced” and the “albumin secretion compared to existing HLOs” value is listed as 30-40 fold lower. In data set [4] (addition Day 6-10), the “reduction of albumin secretion compared to conventional HLOs” value is listed as “a third”.
On to `Cc1c[nH]c(-c2cnc(NCCNc3ccc(C#N)cn3)nc2-c2ccc(Cl)cc2Cl)n1` [CHIR], for which, in [3] (3 μM CHIR instead of 2 μM, with 250 nM LDN, days 3-6), the “TUBB3+ neurons and SOX10 neural crest cells compared to LDN alone” value was “more and More”.
Take `O=C(Nc1ccccc1C(=O)NC1CCCCNC1=O)c1cc2ccccc2s1` (centres unmarked) [ANA12]: the “TH+ nerve production and elongation of nerves” value in data set [5] (1 μM for 5 days, D15 to D20) is “suppressed TH+ nerve production and elongation of nerves”.
Regarding `CC(C)NCC(O)c1ccc(O)c(O)c1` (centres unmarked) [isoproterenol], the “concentration of cAMP” value in data set [6] was “increased”.
As for `CCCCCCCC/C=C\CCCCCCCC(=O)O` [OA, oleic acid], in data set [7], the “amount of TH+ cells in HLO” value is listed as “increasing”.
For `NC[C@H](O)c1ccc(O)c(O)c1` [noradrenaline], the “concentration of cAMP” value in data set [6] was “increased”.
As to `NC(=O)c1ccc(-c2nc(-c3ccc4c(c3)OCO4)c(-c3ccccn3)[nH]2)cc1` [SB431542], in data set [3] (10 μM SB431542 with 250 nM LDN193189, days 3-6), the “neural crest cells and TUBB3/TH+ neurons detected” value was “detected earlier (day 15) and more frequently than in the other conditions”. Moreover, the “TUBB+/TH+ sympathetic innervation” value in data set [3] (SB431542 in addition to LDN, Day 3-Day 6, LDN alone had not yet developed innervation on day 15) is recorded as “extensive TUBB+/TH+ sympathetic innervation was formed around day 15”. In addition, in [3] (SB alone, 10 μM, days 3-6), the TH signal entry is “no TH signal was observed”, the “TUBB3-positive cells / TUBB3+ innervation” value is “appeared” and the “expression of the parasympathetic marker CHAT” value was “detected in some TUBB3+ nerves”. Besides, in data set [3] (setting [9]), the “TUBB3-positive cells / TUBB3+ innervation” value is listed as “observed” and the “expression of the parasympathetic marker CHAT” value is on record as “detected in some cells”. Also, in data set [4] (SB431542 (10 μM) in addition to LDN (250 nM), days 3-6), the albumin secretion result is recorded as “minimal”.
With `NCCc1cc(O)c(O)cc1O` [6-OHDA, 6-hydroxydopamine], in [8] (6-OHDA then oleic acid (OA) for 3 days, vs OA-only treated organoids), the “TG accumulation in hepatocytes” value was “about 3 fold”. The “TG accumulation in hepatocytes” value in data set [8] (6-OHDA-treated vs untreated organoids) is listed as “about twice”. The “concentration of cAMP” value in data set [6] is “significantly decreased”. For the same molecule, in the data set on human liver organoids (setting [10]), the “expression of CD36” value is recorded as “increased expression”, the “expression of G6PC” value is on record as “increased expression”, the “expression of PCK1” value is “increased expression” and the “expression of SCD” value is “increased expression”. In the data set on human liver organoids (setting [11]), the “expression of CXCL8 (IL8)” value is recorded as “increased expression” and the “expression of TNF” value is given as “increased expression”.

B1: BDNF: brain derived neurotrophic factor, neuron attractive factor (protein, UniProt P23560 19-247, looked up)
Neurotrophic factor BDNF …: APMKEANIRGQGGLAYPGVRTHGTLESVNGPKAGSRGLTSLADTFEHVIEELLDEDQKVRPNEENNKDADLYTSRVMLSSQVPLEPPLLFLLEEYKNYLDAANMSMRVRRHSDPARRGELSVCDSISEWVTAADKKTAVDMSGGTVTVLEKVPVSKGQLKQYFYETKCNPMGYTKEGCRGIDKRHWNSQCRTTQSYVRALTMDSKKRIGWRFIRIDTSCVCTLTIKRGR
With B1, in data set [5] (100 nM for 13 days, D15 to D28), the “nerves (TUBB3 immunostaining)” value was “nerves tend to increase and elongate”.
